Read-outs that look alike come from different tables or passages of the source.
Columns and labels:
[1] = tested on: Listeria monocytogenes; conditions: 30 min, TSA-Y, control 2.78×10^9 CFU/ml
Experimental: (§1) Listeria monocytogenes EGDe (1/2a, internal number 2964) is used as a model organism for Gram-positive bacteria and as a DNA quantification standard for real-time PCR. Salmonella enterica serovar Typhimurium (NCTC 12023) is used as a model organism for Gram-negative bacteria and as a DNA quantification standard for real-time PCR. The bacteria are maintained at −80° C. using MicroBank™ technology (Pro-Lab Diagnostics, Richmont Hill, Canada) and are part of the collection of bacterial strains at the Institute of Milk Hygiene, Milk Technology and Food Science, University of Veterinary Medicine, Vienna, Austria. All bacterial strains are grown overnight in tryptone soya broth with 0.6% (w/v) yeast extract (TSB-Y; Oxoid, Hampshire, United Kingdom) at the respective optimal growth temperatures (37° C., L. monocytogenes and 42° C., S. Typhimurium).
(§2) The influence of different MgCl2 concentrations on the viability of Listeria monocytogenes and Salmonella Typhimurium is investigated. The target organisms are incubated for 30 min with 3 different concentrations of MgCl2 (1 M, 2 M and 3 M) and at 3 different temperatures (35° C., 38° C. and 45° C.) and the CFUs on TSA-Y agar plates after the treatment are compared with the control sample.

[2] = tested on: Salmonella Typhimurium; conditions: 30 min, TSA-Y, control […]10^9 CFU/ml
Experimental: as §1, §2

## [Cl-].[Cl-].[Mg+2] [MgCl2, magnesium chloride]
[1]; 1 M MgCl2, 35° C.
  CFU/ml of L. monocytogenes after treatment: 3.86×10^9 CFU/ml
[1]; 1 M MgCl2, 38° C.
  CFU/ml of L. monocytogenes after treatment: 4.06×10^9 CFU/ml
[1]; 1 M MgCl2, 45° C.
  CFU/ml of L. monocytogenes after treatment: 4.39×10^9 CFU/ml
[1]; 2 M MgCl2, 35° C.
  CFU/ml of L. monocytogenes after treatment: 3.10×10^9 CFU/ml
[1]; 2 M MgCl2, 38° C.
  CFU/ml of L. monocytogenes after treatment: 3.64×10^9 CFU/ml
[1]; 2 M MgCl2, 45° C.
  CFU/ml of L. monocytogenes after treatment: 1.68×10^9 CFU/ml
[1]; 3 M MgCl2, 35° C.
  CFU/ml of L. monocytogenes after treatment: 1.76×10^9 CFU/ml
[1]; 3 M MgCl2, 38° C.
  CFU/ml of L. monocytogenes after treatment: 8.5×10^8 CFU/ml
[1]; 3 M MgCl2, 45° C.
  CFU/ml of L. monocytogenes after treatment: 1.5×10^8 CFU/ml
[2]; 1 M MgCl2, 35° C.
  CFU/ml of S. Typhimurium after treatment: 1.15×10^9 CFU/ml
[2]; 1 M MgCl2, 38° C.
  CFU/ml of S. Typhimurium after treatment: 8.33×10^8 CFU/ml
[2]; 1 M MgCl2, 45° C.
  CFU/ml of S. Typhimurium after treatment: 4.1×10^8 CFU/ml
[2]; 2 M MgCl2, 35° C.
  CFU/ml of S. Typhimurium after treatment: 2.3×10^8 CFU/ml
[2]; 2 M MgCl2, 38° C.
  CFU/ml of S. Typhimurium after treatment: 1.35×10^8 CFU/ml
[2]; 3 M MgCl2, 35° C.
  CFU/ml of S. Typhimurium after treatment: 5.75×10^7 CFU/ml
[2]; 3 M MgCl2, 38° C.
  CFU/ml of S. Typhimurium after treatment: 2.0×10^7 CFU/ml

Source: US20140045189A1 (priority 2009, published 2014)
